Data taken from patent US5202315A, “Cephalosporin compounds” (Lucky, Ltd., priority 1989, dated 1993).
Values after ≈ are worked out from the molar mass of the structure shown.

Assays:
Pseudomonas aeruginosa = experiment: Antibacterial activity against clinically isolated strains, MIC; format: cell-based; details: 54 clinical isolates, broth microdilution test; for MIC90: read-out: MIC 90%
[1] = In-vivo absorbency (plasma concentrations & pharmacokinetic parameters); design: species or system SD rat (male); details: plasma, SD male rat, iv 20 mg/kg, read-out: Plasma Conc.
[2] = test system: Staphylococcus aureus methicillin susceptible; experiment: Antibacterial activity against clinically isolated strains, MIC; format: cell-based; details: methicillin susceptible, 42 clinical isolates, broth microdilution test; for MIC90: read-out: MIC 90%
Escherichia coli = experiment: as above; format: cell-based; details: 38 clinical isolates, broth microdilution test
Klebsiella pneumoniae = experiment: as above; format: cell-based; details: 10 clinical isolates, broth microdilution test; for MIC90: read-out: MIC 90%
[3] = test system: Citrobacter freundii ATCC 8090; experiment: Antibacterial activity, MIC; format: cell-based; details: ATCC8090, ATCC 8090, agar two-fold dilution, 37° C., 20 hours, read-out: MIC
Outline: (§1)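 MIC by two-fold serial dilution in Mueller-Hinton agar; inoculum 2 μl at 10^7 CFU/ml; 37 °C, 20 h.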

[4] = test system: Serratia marcescens ATCC 27117; experiment: Antibacterial activity, MIC; format: cell-based; details: ATCC27117, ATCC 27117, agar two-fold dilution, 37° C., 20 hours, read-out: MIC
Outline: as §1

[5] = test system: Salmonella typhimurium ATCC 14028; experiment: Antibacterial activity, MIC; format: cell-based; details: Salmonella enterica; ATCC 14028; agar two-fold dilution, 37° C., 20 hours; read-out: MIC
Outline: as §1

[6] = test system: Enterobacter cloacae ATCC 27508; experiment: Antibacterial activity, MIC; format: cell-based; details: ATCC27508, ATCC 27508, agar two-fold dilution, 37° C., 20 hours, read-out: MIC
Outline: as §1

[7] = test system: Micrococcus luteus ATCC 9341; experiment: Antibacterial activity, MIC; format: cell-based; details: ATCC9341, ATCC 9341, agar two-fold dilution, 37° C., 20 hours, read-out: MIC
Outline: as §1

[8] = test system: Klebsiella pneumoniae ATCC 10031; experiment: Antibacterial activity, MIC; format: cell-based; details: ATCC10031, ATCC 10031, agar two-fold dilution, 37° C., 20 hours, read-out: MIC
Outline: as §1

[9] = test system: Enterobacter aerogenes ATCC 29751; experiment: Antibacterial activity, MIC; format: cell-based; details: Klebsiella aerogenes, ATCC29751; ATCC 29751; agar two-fold dilution, 37° C., 20 hours; read-out: MIC
Outline: as §1

[10] = test system: Escherichia coli ATCC 25922; experiment: Antibacterial activity, MIC; format: cell-based; details: ATCC25922, agar two-fold dilution, 37° C., 20 hours
Outline: as §1

[11] = test system: Staphylococcus epidermidis ATCC 12228; experiment: Antibacterial activity, MIC; format: cell-based; details: ATCC12228, ATCC 12228, agar two-fold dilution, 37° C., 20 hours, read-out: MIC
Outline: as §1

[12] = test system: Morganella morganii ATCC 8076h; experiment: Antibacterial activity, MIC; format: cell-based; details: ATCC8076H, agar two-fold dilution, 37° C., 20 hours
Outline: as §1

[13] = test system: Providencia rettgeri ATCC 9250; experiment: Antibacterial activity, MIC; format: cell-based; details: ATCC9250, agar two-fold dilution, 37° C., 20 hours
Outline: as §1

[14] = test system: Pseudomonas aeruginosa ATCC 25619; experiment: Antibacterial activity, MIC; format: cell-based; details: ATCC25619, ATCC 25619, agar two-fold dilution, 37° C., 20 hours, read-out: MIC
Outline: as §1

[15] = test system: Pseudomonas aeruginosa ATCC 27853; experiment: Antibacterial activity, MIC; format: cell-based; details: ATCC27853, ATCC 27853, agar two-fold dilution, 37° C., 20 hours, read-out: MIC
Outline: as §1

[16] = test system: Bacillus cereus ATCC 11778; experiment: Antibacterial activity, MIC; format: cell-based; details: ATCC11778, ATCC 11778, agar two-fold dilution, 37° C., 20 hours, read-out: MIC
Outline: as §1

[17] = test system: Pseudomonas aeruginosa ATCC 10145; experiment: Antibacterial activity, MIC; format: cell-based; details: ATCC10145, ATCC 10145, agar two-fold dilution, 37° C., 20 hours, read-out: MIC
Outline: as §1

[18] = test system: Shigella flexneri ATCC 11836; experiment: Antibacterial activity, MIC; format: cell-based; details: ATCC11836, agar two-fold dilution, 37° C., 20 hours
Outline: as §1

[19] = test system: Shigella sonnei ATCC 11060; experiment: Antibacterial activity, MIC; format: cell-based; details: ATCC11060, ATCC 11060, agar two-fold dilution, 37° C., 20 hours, read-out: MIC
Outline: as §1

[20] = test system: Staphylococcus aureus ATCC 6538p; experiment: Antibacterial activity, MIC; format: cell-based; details: ATCC6538P, ATCC 6538p, agar two-fold dilution, 37° C., 20 hours, read-out: MIC
Outline: as §1

[21] = test system: Bacillus megaterium ATCC 9885; experiment: Antibacterial activity, MIC; format: cell-based; details: Priestia megaterium, ATCC9885; ATCC 9885; agar two-fold dilution, 37° C., 20 hours; read-out: MIC
Outline: as §1

[22] = test system: Acinetobacter calcoaceticus ATCC 15473; experiment: Antibacterial activity, MIC; format: cell-based; details: ATCC15473, ATCC 15473, agar two-fold dilution, 37° C., 20 hours, read-out: MIC
Outline: as §1

[23] = test system: Proteus vulgaris ATCC 6059; experiment: Antibacterial activity, MIC; format: cell-based; details: ATCC6059, ATCC 6059, agar two-fold dilution, 37° C., 20 hours, read-out: MIC
Outline: as §1

[24] = test system: Escherichia coli ATCC 10536; experiment: Antibacterial activity, MIC; format: cell-based; details: ATCC10536, agar two-fold dilution, 37° C., 20 hours
Outline: as §1

[25] = test system: Staphylococcus aureus ATCC 10537; experiment: Antibacterial activity, MIC; format: cell-based; details: ATCC10537, ATCC 10537, agar two-fold dilution, 37° C., 20 hours, read-out: MIC
Outline: as §1

Structure (SMILES)	MIC50 (Pseudomonas aeruginosa) [µg/mL]	MIC90 (Pseudomonas aeruginosa) [µg/mL]	concentration at 1 min [1] [ng/mL]	concentration at 2.5 min [1] [ng/mL]	concentration at 5 min [1] [ng/mL]	concentration at 10 min [1] [ng/mL]	concentration at 20 min [1] [ng/mL]	concentration at 40 min [1] [ng/mL]	MIC50 [2] [µg/mL]	MIC90 [2] [µg/mL]	MIC50 (Escherichia coli) [µg/mL]	MIC90 (Escherichia coli) [µg/mL]	MIC50 (Klebsiella pneumoniae) [µg/mL]	MIC90 (Klebsiella pneumoniae) [µg/mL]	MIC [3] [µg/mL]	MIC [4] [µg/mL]	MIC [5] [µg/mL]	MIC [6] [µg/mL]	MIC [7] [µg/mL]	MIC [8] [µg/mL]	further results
C[n+]1c(N)cc(N)nc1SCC1=C(C(=O)[O-])N2C(=O)C(NC(=O)/C(=N\OC(C)(C)C(=O)O)c3csc(N)n3)[C@H]2SC1 (some centres unmarked) [Compound I-1, 7-[(Z)-2-(2-aminothiazol-4-yl)-2-(2-carboxyprop-2-oxyimino)acetamido]-3-(4,6-diamino-1-methylpyrimidinium-2-yl) thiomethyl-3-cephem-4-carboxylate]	1 (≈ 1.6 µM)	4 (≈ 6.41 µM)	152000	101000	65000	45000	29000	14000	2 (≈ 3.21 µM)	2 (≈ 3.21 µM)	0.063 (≈ 0.101 µM)	0.13 (≈ 0.208 µM)	0.063 (≈ 0.101 µM)	0.13 (≈ 0.208 µM)	0.063 (≈ 0.101 µM)	0.063 (≈ 0.101 µM)	0.13 (≈ 0.208 µM)	0.016 (≈ 0.0257 µM)	0.25 (≈ 0.401 µM)	0.063 (≈ 0.101 µM)	MIC [9]: 1 µg/mL (≈ 1.6 µM); MIC [10]: 0.063 µg/mL (≈ 0.101 µM); MIC [11]: 1 µg/mL (≈ 1.6 µM); MIC [12]: ≤ 0.008 µg/mL; MIC [13]: ≤ 0.008 µg/mL; MIC [14]: 1 µg/mL (≈ 1.6 µM); MIC [15]: 1 µg/mL (≈ 1.6 µM); MIC [16]: 64 µg/mL (≈ 103 µM); MIC [17]: 2 µg/mL (≈ 3.21 µM); MIC [18]: 0.031 µg/mL (≈ 0.0497 µM); MIC [19]: 0.031 µg/mL (≈ 0.0497 µM); MIC [20]: 2 µg/mL (≈ 3.21 µM); MIC [21]: 0.25 µg/mL (≈ 0.401 µM); MIC [22]: 2 µg/mL (≈ 3.21 µM); MIC [23]: 0.031 µg/mL (≈ 0.0497 µM); MIC [24]: 0.063 µg/mL (≈ 0.101 µM); MIC [25]: 1 µg/mL (≈ 1.6 µM)
CC[n+]1c(N)cc(N)nc1SCC1=C(C(=O)[O-])N2C(=O)C(NC(=O)/C(=N\OC(C)(C)C(=O)O)c3csc(N)n3)C2SC1 (centres unmarked) [Compound I-2]	2 (≈ 3.14 µM)	4 (≈ 6.27 µM)	55000	33000	22000	14000	7300	4500	2 (≈ 3.14 µM)	2 (≈ 3.14 µM)	0.063 (≈ 0.0988 µM)	0.13 (≈ 0.204 µM)	0.13 (≈ 0.204 µM)	0.13 (≈ 0.204 µM)	0.13 (≈ 0.204 µM)	0.13 (≈ 0.204 µM)	0.25 (≈ 0.392 µM)	0.031 (≈ 0.0486 µM)	0.25 (≈ 0.392 µM)	0.063 (≈ 0.0988 µM)	MIC [9]: 2 µg/mL (≈ 3.14 µM); MIC [10]: 0.063 µg/mL (≈ 0.0988 µM); MIC [11]: 1 µg/mL (≈ 1.57 µM); MIC [12]: ≤ 0.008 µg/mL; MIC [13]: ≤ 0.008 µg/mL; MIC [14]: 1 µg/mL (≈ 1.57 µM); MIC [15]: 1 µg/mL (≈ 1.57 µM); MIC [16]: 64 µg/mL (≈ 100 µM); MIC [17]: 2 µg/mL (≈ 3.14 µM); MIC [18]: 0.031 µg/mL (≈ 0.0486 µM); MIC [19]: 0.063 µg/mL (≈ 0.0988 µM); MIC [20]: 2 µg/mL (≈ 3.14 µM); MIC [21]: 0.5 µg/mL (≈ 0.784 µM); MIC [22]: 4 µg/mL (≈ 6.27 µM); MIC [23]: 0.031 µg/mL (≈ 0.0486 µM); MIC [24]: 0.063 µg/mL (≈ 0.0988 µM); MIC [25]: 2 µg/mL (≈ 3.14 µM)
